Where “and” joins values, the source holds several entries; their conditions need not be identical. Equal entries are not always repeated. Where two headings read alike, the source gives them in different places.
How the values were obtained:
[1] = tested on: myeloid cell line derived from MUTZ-3
[2] = tested on: myeloid cell line derived from MUTZ-3; remark: listed apart in the source
[3] = tested on: myeloid cell line derived from MUTZ-3; remark: listed apart in the source
[4] = cited from earlier work; for binary class: sens / non-sens; for true CLP: test set
[5] = tested on: myeloid cell line derived from MUTZ-3; assay: Cytotoxicity / viability by flow cytometry (propidium iodide), 24 hours exposure; conditions: yes/no; MUTZ-3 derived cells
[6] = tested on: myeloid cell line derived from MUTZ-3; assay: GARD random forest model predicting CLP categories (52 transcripts, Example A); conditions: test set; for GARD predicted CLP: majority voting across replicates; for predicted CLP: separate replicates
[7] = cited from earlier work; for binary class (HP*): based on human potency [41] where available, otherwise according to CLP; for HP: human potency, chemicals of random forest training and test set; for Human potency [41]: test set
[8] = tested on: myeloid cell line derived from MUTZ-3; assay: GARD binary classification (SVM on GARD prediction signature, 200 transcripts); conditions: SVM, median calibrated decision value of replicates >0 = sensitizer
[9] = CLP annotation of 37 novel chemicals
[10] = chemicals of random forest training and test set

GARD predicted CLP [6] | predicted CLP [6] | SMILES | CLP [4, 9] | CLP ([4]; Table 10, chemicals test set 1) | CLP [4, 10] | binary class [4, 10] | true CLP ([4]; per replicate line) | true CLP [4] | cytotox [5] | binary class (HP*) [7] | HP [7] | Human potency [41] [7] | GARD binary prediction [8] | further results
 |  | CCCCOCC1CO1 (stereo not drawn) [butyl glycidyl ether] |  |  |  |  |  |  |  |  |  |  |  | cytotox [1]: yes; GARD binary classification relative to cut-off defined by benchmark samples [2]: close to the cut-off; GARD predicted CLP ([3]; human, 24 h): 1A
1B | no cat and 1B (2×) | C=CC(C)(O)CCC=C(C)C (stereo not drawn) [linalool] | 1B | 1B | 1B | sens | 1B | 1B | no | S (HP 1-4 = S) | 4 | 4 |  | 
 |  | Nc1ccccc1 [aniline] |  |  |  |  |  |  |  |  |  |  |  | GARD binary classification relative to cut-off defined by benchmark samples [2]: close to the cut-off
 |  | CCOc1cc(C=O)ccc1O [ethyl vanillin] |  |  |  |  |  |  |  |  |  |  |  | GARD predicted CLP [3]: no cat; predicted CLP [3]: no cat; predicted CLP ([3]; human, 24 h): 1B
 |  | CCCCC/C(=C/c1ccccc1)CO [amylcinnamyl alcohol] |  |  |  |  |  |  |  |  |  |  |  | cytotox [1]: yes; GARD binary prediction [2]: S
1A | 1A | CCCOC(=O)c1cc(O)c(O)c(O)c1 [propyl gallate] | 1A |  | 1A | sens | 1A | 1A | yes | S (HP 1-4 = S) | 2 | 2 | S | 
1A | 1A | O=CCCCC=O [glutaraldehyde] | 1A | 1A | 1A | sens | 1A | 1A | yes | S (HP 1-4 = S) | 2 | 2 | S | 
1B | 1B | O=C(OCc1ccccc1)c1ccccc1 [benzyl benzoate] |  |  |  |  |  |  | yes |  |  |  | S | 
1A | 1A (2×) and 1B | CC(C)(O)CCCC1=CCC(C=O)CC1 (stereo not drawn) [lyral] | 1B | 1B | 1B | sens | 1B | 1B | yes | S (HP 1-4 = S) | 2 | 2 | S | 

SMILES | GARD predicted CLP [6] | predicted CLP [6] | CLP [4, 9] | CLP ([4]; Table 10, chemicals test set 1) | CLP [4, 10] | binary class [4, 10] | true CLP ([4]; per replicate line) | true CLP [4] | cytotox [5] | binary class (HP*) [7] | HP [7] | Human potency [41] [7] | GARD binary prediction [8] | further results
CC(C)(c1ccc(OCC2CO2)cc1)c1ccc(OCC2CO2)cc1 (stereo not drawn) [bisphenol A-diglycidyl ether] | 1A | 1A |  |  |  |  |  |  |  |  |  |  |  | GARD binary prediction [2]: S

Source: patent US11324787B2, “Analytical methods and arrays for use in the same” (SENZAGEN AB, priority 2017, dated 2022)
